Source: ChEMBL document CHEMBL1201862, “PubChem BioAssay data set” (2004)
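Grown in 96-well plates, cells were treated for 48 hours with each compound at five concentrations. Insufficient inhibition: endpoint recorded as highest concentration tested. GI50: concentration for 50% inhibition of growth.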 The source made the active and inactive calls. Rule as the data show it: active = GI50 up to about 1.1 µM and inactive = higher.

Columns and labels:
Assay in all cases: growth of human tumour cells (NCI), 48 h
[1] = tested on: ACHN
[2] = tested on: HCC 2998
[3] = tested on: EKVX
[4] = tested on: UO-31
[5] = tested on: Malme-3M
[6] = tested on: HT-29
[7] = tested on: KM12
[8] = tested on: 786-0
[9] = tested on: SF-539
[10] = tested on: UACC-62
[11] = tested on: HCT-15
[12] = tested on: SW-620
[13] = tested on: HCT-116
[14] = tested on: SF-268
[15] = tested on: RXF 393

Row | SMILES | GI50 [1] | GI50 [2] | GI50 [3] | GI50 [4] | GI50 [5] | GI50 [6] | GI50 [7] | GI50 [8] | GI50 [9] | GI50 [10] | GI50 [11] [µM] | GI50 [12] | GI50 [13] | GI50 [14] | GI50 [15]
1 | COc1ccc(-c2cc(O)c3cc4c(cc3n2)OCO4)c(OC)c1 | 37.1 µM (inactive) | 50.7 µM (inactive) | 82.4 µM (inactive) | 57.3 µM (inactive) | 25.2 µM (inactive) | 43 µM (inactive) | 41.6 µM (inactive) | > 100 µM (inactive) | 51.3 µM (inactive) | 28.3 µM (inactive) | 38.9 | 47.3 µM (inactive) | – | – | –
2 | COc1cc2c(c(OC)c1OC)-c1ccc(SC)c(=O)cc1[C@@H](NC(=O)c1ccc(F)cc1)CC2 | 0.0467 µM (active) | 0.0284 µM (active) | 0.0461 µM (active) | < 0.01 µM (active) | 0.0615 µM (active) | 0.0318 µM (active) | 0.0217 µM (active) | 0.0488 µM (active) | 0.0283 µM (active) | 0.0454 µM (active) | – | 0.0306 µM (active) | 0.0416 µM (active) | 0.0455 µM (active) | –
3 | CC(C)=CC1CCc2ccccc2N1S(=O)(=O)c1ccc(C)cc1 (stereo unspecified) | 3.31 µM (inactive) | 1.27 µM (inactive) | 10.6 µM (inactive) | 3.61 µM (inactive) | 1.67 µM (inactive) | 1.36 µM (inactive) | 0.624 µM (active) | 2.35 µM (inactive) | 1.16 µM (inactive) | 0.982 µM (active) | 1.09 | 0.726 µM (active) | 0.982 µM (active) | 2.93 µM (inactive) | 1.24 µM (inactive)
4 | N/N=C1/C(=O)N(c2ccc(Cl)cc2)C(=O)C(=O)C1c1nc2ccccc2s1 (stereo unspecified) | > 100 µM (inactive) | > 100 µM (inactive) | > 100 µM (inactive) | > 100 µM (inactive) | > 100 µM (inactive) | > 100 µM (inactive) | > 100 µM (inactive) | > 100 µM (inactive) | > 100 µM (inactive) | > 100 µM (inactive) | 72.1 | > 100 µM (inactive) | > 100 µM (inactive) | > 100 µM (inactive) | > 100 µM (inactive)
5 | COC(=O)CCc1cccnc1/C=N/O | > 100 µM (inactive) | – | > 100 µM (inactive) | > 100 µM (inactive) | > 100 µM (inactive) | > 100 µM (inactive) | > 100 µM (inactive) | > 100 µM (inactive) | > 100 µM (inactive) | > 100 µM (inactive) | > 100 | 87.5 µM (inactive) | > 100 µM (inactive) | > 100 µM (inactive) | > 100 µM (inactive)
6 | Cc1ccc(/C=C2\CCCC\C2=N\O)cc1 | 37.8 µM (inactive) | 19.9 µM (inactive) | 80.2 µM (inactive) | 26.9 µM (inactive) | – | 51.8 µM (inactive) | – | 48.5 µM (inactive) | 88.3 µM (inactive) | > 100 µM (inactive) | 44.6 | > 100 µM (inactive) | 45.9 µM (inactive) | 51.2 µM (inactive) | –
7 | C=CCCCCC1CCC2CCC(CCCCC=C)N12 (stereo unspecified) | 14.6 µM (inactive) | 16.1 µM (inactive) | > 10 µM (inactive) | 13.2 µM (inactive) | 15.8 µM (inactive) | 9.38 µM (inactive) | 15.8 µM (inactive) | 13.7 µM (inactive) | 16.9 µM (inactive) | 15.7 µM (inactive) | 6.3 | 15.1 µM (inactive) | 14.2 µM (inactive) | 14.7 µM (inactive) | –
8 | O=C(Nc1ccccc1)O/N=C1/CCCC/C1=C\c1ccccc1 | 16.4 µM (inactive) | 20.6 µM (inactive) | – | 13.2 µM (inactive) | – | 28.2 µM (inactive) | – | 16.7 µM (inactive) | 17.7 µM (inactive) | 15.7 µM (inactive) | 11.3 | 16.3 µM (inactive) | 13.7 µM (inactive) | 15.6 µM (inactive) | 16.3 µM (inactive)
9 | Cc1c(C(=O)/C=C/c2ccccc2Cl)[n+]([O-])c2ccccc2[n+]1[O-] | 17.2 µM (inactive) | – | 17.3 µM (inactive) | 19.1 µM (inactive) | 15.6 µM (inactive) | 17.3 µM (inactive) | 14.3 µM (inactive) | 12.6 µM (inactive) | 15.9 µM (inactive) | – | 10.1 | 10.3 µM (inactive) | 10.6 µM (inactive) | – | –
10 | CN/N=C(/CC(=O)c1sc(-n2nc(-c3ccccc3)cc2-c2ccccc2)nc1C)C(=O)Nc1ccc(Cl)c(Cl)c1 | 25.1 µM (inactive) | 44.3 µM (inactive) | 0.787 µM (active) | 21.2 µM (inactive) | 78.3 µM (inactive) | 25.9 µM (inactive) | 41.7 µM (inactive) | 39.3 µM (inactive) | 40.2 µM (inactive) | 26.5 µM (inactive) | 31.3 | 57.5 µM (inactive) | 34.5 µM (inactive) | 35.2 µM (inactive) | 26.2 µM (inactive)
11 | O=C(CN1CCCCC1)N1CCc2c([nH]c3ccccc23)C1c1cccnc1 (stereo unspecified) | > 100 µM (inactive) | > 100 µM (inactive) | > 100 µM (inactive) | 48.8 µM (inactive) | – | > 100 µM (inactive) | > 100 µM (inactive) | > 100 µM (inactive) | > 100 µM (inactive) | > 100 µM (inactive) | > 100 | > 100 µM (inactive) | > 100 µM (inactive) | > 100 µM (inactive) | 40.5 µM (inactive)
12 | Cn1cc(C2(C)CC(C)(C)c3c2n(C)c2ccccc32)c2ccccc21 (stereo unspecified) | – | 52.4 µM (inactive) | > 100 µM (inactive) | 92.7 µM (inactive) | > 100 µM (inactive) | 49.8 µM (inactive) | 94 µM (inactive) | > 100 µM (inactive) | > 100 µM (inactive) | > 100 µM (inactive) | > 100 | > 100 µM (inactive) | – | > 100 µM (inactive) | 32.5 µM (inactive)
13 | CC1(O)CC2C(CC1SCCO)C2(C)C (stereo unspecified) | > 100 µM (inactive) | > 100 µM (inactive) | > 100 µM (inactive) | > 100 µM (inactive) | > 100 µM (inactive) | > 100 µM (inactive) | > 100 µM (inactive) | > 100 µM (inactive) | > 100 µM (inactive) | – | > 100 | – | > 100 µM (inactive) | > 100 µM (inactive) | –
14 | COc1ccccc1NC(=O)C1=C(C)NC(C)=C(C(=O)Nc2ccccc2OC)C1c1ccccc1F | 51.6 µM (inactive) | > 100 µM (inactive) | 50.2 µM (inactive) | 62.7 µM (inactive) | 63.1 µM (inactive) | 91.4 µM (inactive) | 66.7 µM (inactive) | > 100 µM (inactive) | 30.5 µM (inactive) | 81.7 µM (inactive) | 98.6 | > 100 µM (inactive) | 59 µM (inactive) | > 100 µM (inactive) | –
15 | CC(=O)NC1C(OCc2ccccc2)OC(COC(=O)CCCCCCCCCCNC(=O)CCNc2ccc([N+](=O)[O-])c3[nH]c4ccc(O)cc4c(=O)c23)C(O)C1OC(C)C(=O)N[C@H](C(=O)N[C@H](CCC(=O)O)C(N)=O)C(C)C (stereo partly specified) | 60.7 µM (inactive) | 23.8 µM (inactive) | 96.8 µM (inactive) | 55.2 µM (inactive) | 22.9 µM (inactive) | 56.2 µM (inactive) | 63.4 µM (inactive) | 76 µM (inactive) | 40.1 µM (inactive) | 85.3 µM (inactive) | > 100 | – | 53.7 µM (inactive) | > 100 µM (inactive) | 69.3 µM (inactive)
16 | O=C1CCCCC/C=C2/CC[C@H](Sc3ccccc3)[C@@H]12 | 42.5 µM (inactive) | – | 38.3 µM (inactive) | 50 µM (inactive) | > 100 µM (inactive) | > 100 µM (inactive) | 87.1 µM (inactive) | > 100 µM (inactive) | – | > 100 µM (inactive) | > 100 | > 100 µM (inactive) | 52.4 µM (inactive) | 88.5 µM (inactive) | 37.8 µM (inactive)
17 | Cn1nc(-c2ccccc2)c(C(=O)/C=C/c2ccc(Cl)cc2)c(N2CCCCC2)c1=O | 1.92 µM (inactive) | – | 3.85 µM (inactive) | 1.65 µM (inactive) | – | 1.45 µM (inactive) | – | 1.69 µM (inactive) | 1.61 µM (inactive) | 2.2 µM (inactive) | 2.98 | 3.48 µM (inactive) | 1.81 µM (inactive) | 2 µM (inactive) | 1.32 µM (inactive)
18 | [O-][S+]1c2ccc(Cl)cc2CC(SSC2Cc3cc(Cl)ccc3[S+]([O-])c3ccccc32)c2ccccc21 (stereo unspecified) | > 100 µM (inactive) | > 100 µM (inactive) | > 100 µM (inactive) | > 100 µM (inactive) | > 100 µM (inactive) | > 100 µM (inactive) | > 100 µM (inactive) | > 100 µM (inactive) | > 100 µM (inactive) | > 100 µM (inactive) | – | > 100 µM (inactive) | > 100 µM (inactive) | > 100 µM (inactive) | > 100 µM (inactive)
19 | COC(=O)C1=C(C)N(NC(N)=O)C(C)(O)C12CCOC2=O (stereo unspecified) | > 100 µM (inactive) | < 0.01 µM (active) | > 100 µM (inactive) | > 100 µM (inactive) | > 100 µM (inactive) | > 100 µM (inactive) | > 100 µM (inactive) | > 100 µM (inactive) | > 100 µM (inactive) | > 10 µM (inactive) | > 100 | > 100 µM (inactive) | > 100 µM (inactive) | > 100 µM (inactive) | –
20 | CC12CCC(C)(c3cc(O)c(O)cc31)c1cc(O)c(O)cc12 | 16.1 µM (inactive) | 17.5 µM (inactive) | 25.1 µM (inactive) | 19.8 µM (inactive) | 18.3 µM (inactive) | 14.7 µM (inactive) | 17.1 µM (inactive) | 14.7 µM (inactive) | – | 17.3 µM (inactive) | 13.7 | 15.7 µM (inactive) | – | 18.2 µM (inactive) | 16.1 µM (inactive)
